Structures can show the parent of a compound that is named as a salt.
target: recombinant Human Phosphodiesterase B2 (PDE4B2) (Homo sapiens, UniProt Q07343); assay: Human Phosphodiesterase B2 Radiometric Assay (yttrium silicate SPA beads, [3H]cyclic AMP); type: biochemical; details: recombinant human PDE4B2, radiometric SPA assay, 8 nM [3H]cyclic AMP; read-out: PDE4B2 pIC50 (converted)
In short: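 Compounds were preincubated 30 min at 30 °C with 0.1 mg/mL PDE4B2 in 50 mM HEPES pH 7.5, 8.3 mM MgCl2, 1.7 mM EGTA, 0.01% Brij 35. Then 8 nM [3H]cAMP was added for 20 min, stopped with yttrium silicate SPA beads plus 18 mM ZnSO4 capturing product 5′AMP; pIC50 by curve fitting.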

recombinant Human Phosphodiesterase B2 (PDE4B2), sequence (Q07343 1-564 isoform Q07343-2): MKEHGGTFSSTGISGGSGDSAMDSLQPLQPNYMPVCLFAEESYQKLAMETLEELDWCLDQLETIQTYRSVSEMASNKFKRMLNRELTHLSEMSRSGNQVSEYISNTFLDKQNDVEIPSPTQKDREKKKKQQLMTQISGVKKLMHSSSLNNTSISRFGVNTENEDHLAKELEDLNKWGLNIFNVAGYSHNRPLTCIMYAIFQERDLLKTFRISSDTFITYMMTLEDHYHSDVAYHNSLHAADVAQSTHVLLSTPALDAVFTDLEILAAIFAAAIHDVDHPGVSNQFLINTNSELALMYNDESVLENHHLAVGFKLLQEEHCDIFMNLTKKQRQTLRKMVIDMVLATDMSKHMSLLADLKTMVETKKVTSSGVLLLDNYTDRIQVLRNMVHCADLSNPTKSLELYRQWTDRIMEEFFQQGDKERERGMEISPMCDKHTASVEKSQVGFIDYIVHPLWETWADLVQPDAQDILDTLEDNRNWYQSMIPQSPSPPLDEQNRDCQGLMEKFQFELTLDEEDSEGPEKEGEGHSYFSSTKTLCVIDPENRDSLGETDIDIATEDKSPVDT

Row | IC50 [nM] | SMILES
1 | 0.631 | O=C(NCc1ccccc1)c1cccc(-n2c(=O)n([C@H]3CC[C@@H](NC(=O)c4cn5cc(F)ccc5n4)CC3)c(=O)c3cc(F)cnc32)c1 [Example 92, N-{cis-4-[1-{3-[(benzylamino)carbonyl]phenyl}-6-fluoro-2,4-dioxo-1,4-dihydropyrido[2,3-d]pyrimidin-3(2H)-yl]cyclohexyl}-6-fluoroimidazo[1,2-a]pyridine-2-carboxamide]
2 | 0.0398 | O=C(Nc1ccccc1)c1cccc(-n2c(=O)n([C@H]3CC[C@@H](NC(=O)c4cn5ccccc5n4)CC3)c(=O)c3cc(F)cnc32)c1 [Example 4, N-{cis-4-[1-[3-(anilinocarbonyl)phenyl]-6-fluoro-2,4-dioxo-1,4-dihydropyrido[2,3-d]pyrimidin-3(2H)-yl]cyclohexyl}imidazo[1,2-c]pyridine-2-carboxamide]
3 | 0.0501 | Cc1cc(C(=O)N[C@H]2CC[C@@H](n3c(=O)c4cc(F)cnc4n(-c4cccc(-c5ccc(CN6CCC(CO)CC6)cc5)c4)c3=O)CC2)nn1C [Example 116, N-{cis-4-[6-fluoro-1-(4′-{[4-(hydroxymethyl)piperidin-1-yl]methyl}biphenyl-3-yl)-2,4-dioxo-1,4-dihydropyrido[2,3-d]pyrimidin-3(2H)-yl]cyclohexyl}-1,5-dimethyl-1H-pyrazole-3-carboxamide]
4 | 0.251 | O=C(N[C@H]1CC[C@@H](n2c(=O)c3cc(F)cnc3n(-c3cccc(-c4ccc(CN5CCCOCC5)cc4)c3)c2=O)CC1)C1CC1 [Example 306, N-{cis-4-[6-fluoro-1-[4′-(1,4-oxazepan-4-ylmethyl)biphenyl-3-yl]-2,4-dioxo-1,4-dihydropyrido[2,3-d]pyrimidin-3(2H)-yl]cyclohexyl} cyclopropanecarboxamide]
5 | 0.0794 | O=C(N[C@H]1CC[C@@H](n2c(=O)c3cc(F)cnc3n(-c3cccc(-c4ccc(F)cc4O)c3)c2=O)CC1)c1cn2cc(F)ccc2n1 [Example 80, 6-fluoro-N-{cis-4-[6-fluoro-1-(4′-fluoro-2′-hydroxybiphenyl-3-yl)-2,4-dioxo-1,4-dihydropyrido[2,3-d]pyrimidin-3(2H)-yl]cyclohexyl}imidazo[1,2-a]pyridine-2-carboxamide]
6 | 2 | CC(=O)N[C@H]1CC[C@@H](n2c(=O)c3cc(F)cnc3n(-c3cccc(-c4ccc(CN(C)C)cc4)c3)c2=O)CC1 [Example 89, N-{cis-4-[1-{4′-[(dimethylamino)methyl]biphenyl-3-yl}-6-fluoro-2,4-dioxo-1,4-dihydropyrido[2,3-d]pyrimidin-3(2H)-yl]cyclohexyl}acetamide]
7 | 0.0126 | Cc1cc(C(=O)N[C@H]2CC[C@@H](n3c(=O)c4cc(F)cnc4n(-c4cccc(-c5ccc(CN(C)CCN(C)C)cc5)c4)c3=O)CC2)nn1C [Example 113, N-{cis-4-[1-(4′-{[[2-(dimethylamino)ethyl](methyl)amino]methyl}biphenyl-3-yl)-6-fluoro-2,4-dioxo-1,4-dihydropyrido[2,3-d]pyrimidin-3(2H)-yl]cyclohexyl}-1,5-dimethyl-1H-pyrazole-3-carboxamide]
8 | 0.00794 | C[C@H]1CN(Cc2ccc(-c3cccc(-n4c(=O)n([C@H]5CC[C@@H](NC(=O)c6cn7cc(F)ccc7n6)CC5)c(=O)c5cc(F)cnc54)c3)cc2)CCN1 (relative stereo) [Example 271, 6-Fluoro-N-{cis-4-[6-fluoro-1-(4′-{[(3S)-3-methylpiperazin-1-yl]methyl}biphenyl-3-yl)-2,4-dioxo-1,4-dihydropyrido[2,3-d]pyrimidin-3(2H)-yl]cyclohexyl}imidazo[1,2-a]pyridine-2-carboxamide]
9 | 0.0398 | Cc1cc(O)ccc1-c1cccc(-n2c(=O)n([C@H]3CC[C@@H](NC(=O)c4cn5cc(F)ccc5n4)CC3)c(=O)c3cc(F)cnc32)c1 [Example 23, 6-fluoro-N-{cis-4-[6-fluoro-1-(4′-hydroxy-2′-methylbiphenyl-3-yl)-2,4-dioxo-1,4-dihydropyrido[2,3-d]pyrimidin-3(2H)-yl]cyclohexyl}imidazo[1,2-a]pyridine-2-carboxamide.]
10 | 0.00794 | CCCN1CCN(Cc2ccc(-c3cccc(-n4c(=O)n([C@H]5CC[C@@H](NC(=O)c6cn7c(n6)CCCC7)CC5)c(=O)c5cc(F)cnc54)c3)cc2)CC1 [Example 227, N-{cis-4-[6-fluoro-2,4-dioxo-1-{4′-[(4-propylpiperazin-1-yl)methyl]biphenyl-3-yl}-1,4-dihydropyrido[2,3-d]pyrimidin-3(2H)-yl]cyclohexyl}-5,6,7,8-tetrahydroimidazo[1,2-a]pyridine-2-carboxamide]
11 | 0.02 | CNC1CCN(Cc2ccc(-c3cccc(-n4c(=O)n([C@H]5CC[C@@H](NC(=O)c6cn7cc(F)ccc7n6)CC5)c(=O)c5cc(F)cnc54)c3)cc2)CC1 [Example 61, 6-fluoro-N-{cis-4-[6-fluoro-1-(4′-{[4-(methylamino)piperidin-1-yl]methyl}biphenyl-3-yl)-2,4-dioxo-1,4-dihydropyrido[2,3-d]pyrimidin-3(2H)-yl]cyclohexyl}imidazo[1,2-a]pyridine-2-carboxamide]
12 | 0.01 | O=C(N[C@H]1CC[C@@H](n2c(=O)c3cc(F)cnc3n(-c3cccc(-c4ccc(CN5CCC(N6CCCCC6)CC5)cc4)c3)c2=O)CC1)c1cnc2ccccc2n1 [Example 296, N-{cis-4-[1-[4′-(1,4′-bipiperidin-1′-ylmethyl)biphenyl-3-yl]-6-fluoro-2,4-dioxo-1,4-dihydropyrido[2,3-d]pyrimidin-3(2H)-yl]cyclohexyl} quinoxaline-2-carboxamide]
13 | 0.0398 | CCOCCNCc1ccc(-c2cccc(-n3c(=O)n([C@H]4CC[C@@H](NC(=O)c5cn6c(n5)CCCC6)CC4)c(=O)c4cc(F)cnc43)c2)cc1 [Example 123, N-{cis-4-[1-(4′-{[(2-ethoxyethyl)amino]methyl}biphenyl-3-yl)-6-fluoro-2,4-dioxo-1,4-dihydropyrido[2,3-d]pyrimidin-3(2H)-yl]cyclohexyl}-5,6,7,8-tetrahydroimidazo[1,2-a]pyridine-2-carboxamide]
14 | 0.01 | C[C@H]1COCCN1Cc1cc(O)ccc1-c1cccc(-n2c(=O)n([C@H]3CC[C@@H](NCc4cn5cc(F)ccc5n4)CC3)c(=O)c3cc(F)cnc32)c1 [Example 317, 6-fluoro-3-(cis-4-{[(6-fluoroimidazo[1,2-a]pyridin-2-yl)methyl]amino}cyclohexyl)-1-(4′-hydroxy-2′-{[(3S)-3-methylmorpholin-4-yl]methyl}biphenyl-3-yl)pyrido[2,3-d]pyrimidine-2,4(1H,3H)-dione]
15 | 0.501 | NCc1cccc(-c2cccc(-n3c(=O)n([C@H]4CC[C@@H](NC(=O)c5cn6cc(F)ccc6n5)CC4)c(=O)c4cc(F)cnc43)c2)c1 [Example 31, N-{cis-4-[1-[3′-(aminomethyl)biphenyl-3-yl]-6-fluoro-2,4-dioxo-1,4-dihydropyrido[2,3-d]pyrimidin-3(2H)-yl]cyclohexyl}-6-fluoroimidazo[1,2-a]pyridine-2-carboxamide. Hydrochloride]
16 | 0.0398 | O=CN1CCCN(Cc2cc(O)ccc2-c2cccc(-n3c(=O)n([C@H]4CC[C@@H](NCc5cn6cc(F)ccc6n5)CC4)c(=O)c4cc(F)cnc43)c2)CC1 [Example 376, 4-({3′-[6-fluoro-3-(cis-4-{[(6-fluoroimidazo[1,2-a]pyridin-2-yl)methyl]amino}cyclohexyl)-2,4-dioxo-3,4-dihydropyrido[2,3-d]pyrimidin-1(2H)-yl]-4-hydroxybiphenyl-2-yl}methyl)-1,4-diazepane-1-carbaldehyde]
17 | 2.51 | O=C(N[C@H]1CC[C@@H](n2c(=O)c3cc(F)cnc3n(-c3cccc(-c4ccc(CN5CCCOCC5)cc4)c3)c2=O)CC1)c1ccc(OCCN2CCCC2)cc1 [Example 307, N-{cis-4-[6-fluoro-1-[4′-(1,4-oxazepan-4-ylmethyl)biphenyl-3-yl]-2,4-dioxo-1,4-dihydropyrido[2,3-d]pyrimidin-3(2H)-yl]cyclohexyl}-4-(2-pyrrolidin-1-ylethoxy)benzamide]
18 | 0.158 | CN1CCCC1c1ccc2nc(C(=O)N[C@H]3CC[C@@H](n4c(=O)c5cc(F)cnc5n(-c5cccc(-c6ccccc6)c5)c4=O)CC3)cn2c1 (stereo partly drawn) [Example 2, N-[cis-4-(1-biphenyl-3-yl-6-fluoro-2,4-dioxo-1,4-dihydropyrido[2,3-d]pyrimidin-3(2H)-yl)cyclohexyl]-6-(1-methylpyrrolidin-2-yl)imidazo[1,2-a]pyridine-2-carboxamide]
19 | 0.00631 | C[C@@H]1CN(Cc2ccc(-c3cccc(-n4c(=O)n([C@H]5CC[C@@H](NC(=O)c6cn7cc(F)ccc7n6)CC5)c(=O)c5cc(F)cnc54)c3)cc2)C[C@H](C)N1 [Example 270, N-{cis-4-[1-(4′-{[(3R,5S)-3,5-Dimethylpiperazin-1-yl]methyl}biphenyl-3-yl)-6-fluoro-2,4-dioxo-1,4-dihydropyrido[2,3-d]pyrimidin-3(2H)-yl]cyclohexyl}-6-fluoroimidazo[1,2-a]pyridine-2-carboxamide]
20 | 0.0398 | O=c1c2cc(F)cnc2n(-c2cccc(-c3ccc(CN4CCCOCC4)cc3)c2)c(=O)n1[C@H]1CC[C@@H](N(Cc2cn3cc(F)ccc3n2)Cc2cn3cc(F)ccc3n2)CC1 [Example 339, 3-(cis-4-{bis[(6-fluoroimidazo[1,2-a]pyridin-2-yl)methyl]amino}cyclohexyl)-6-fluoro-1-[4′-(1,4-oxazepan-4-ylmethyl)biphenyl-3-yl]pyrido[2,3-d]pyrimidine-2,4(1H,3H)-dione]
21 | 0.0158 | CCN(CC)CCN(C)Cc1ccc(-c2cccc(-n3c(=O)n([C@H]4CC[C@@H](NC(=O)c5cn6c(n5)CCCC6)CC4)c(=O)c4cc(F)cnc43)c2)cc1 [Example 225, N-{cis-4-[1-(4′-{[[2-(diethylamino)ethyl](methyl)amino]methyl}biphenyl-3-yl)-6-fluoro-2,4-dioxo-1,4-dihydropyrido[2,3-d]pyrimidin-3(2H)-yl]cyclohexyl}-5,6,7,8-tetrahydroimidazo[1,2-a]pyridine-2-carboxamide]

From US20100204203A1, “Chemical Compounds 637: Pyridopyrimidinediones as PDE4 Inhibitors” (priority 2007, published 2010)
